Source: patent US7579016B2, “Methods for repelling arthropods using isolongifolenone analogs” (The United States of America as represented by the …, priority 2007, dated 2009)

Experiments:
Aedes aegypti = assay: in vitro K&D module mosquito biting-deterrent bioassay; format: in vivo; details: for proportion of mosquitoes not biting (biting deterrence): 3-minute exposure, 200 females, FIG. 2; for proportion of mosquitoes deterred, dose-response assay: FIG. 3
From the text: (§1) Mosquito Bioassay: Yellowfever mosquito, Aedes aegypti (red eye Liverpool strain) and malarial vector mosquito, Anopheles stephensi used in the study were from colonies maintained at the Walter Reed Army Institute of Research, Department of Entomology, Silver Spring, Md. The mosquitoes were reared using the procedure of Gerberg et al. (Gerberg, E. J., et al., Manual for mosquito rearing and experimental techniques, 1994, AMCA Inc., Lake Charles, La.). Larvae were fed ground tropical fish flakes (Tetramin Tropical Fish Flakes, Tetra Sales, Blacksburg, Va., wwv.tetra-fish.com). Colonies were maintained in a photoperiod of 12:12 h (L:D with lights on at 0600 h) at 27° C. and 80% RH. Adult mosquitoes were supplied with cotton pads moistened with 10% aqueous sucrose solution.
(§2) The comparative mosquito biting-deterrent activity of isolongifolenone and Deet was evaluated using the mosquitoes A. degypti and An. stephensi. Isolongifolenone was synthesized as described earlier. The well known and widely used synthetic repellent chemical Deet (McCabe, E. T., et al., J. Org. Chem., 19: 493-498 (1954)) was purchased from Morflex, Inc., Greensboro, N.C. Deet is often considered to be the best mosquito repellent ever developed (Elston, D. M., J. Am. Acad. Dermatol., 36: 644-645 (1998)) and is used as a gold standard to which new candidate repellents are compared. A comparative bioassay of the two compounds was conducted by using the in vitro K&D module bioassay system (Klun et al., 2005). The K&D in vitro assay system consists of three components: (1) A Plexiglas™ 29.7 cm×7.1 cm K&D module composed of six adjacent cells each designed to hold mosquitoes and each having a rectangular 3×4 cm floor hole that opened and closed by a sliding door. (2) A Plexiglas™ six-well 29.7 cm×7.1 cm water water-bath warmed (38° C.) reservoir with six 3×4 cm wells designed to match the sliding-door openings of the K&D module base and to contain 6 mL warmed human red blood cells. The wells were covered with a collagen membrane (the blood cell-membrane unit simulated a human host for mosquito feeding). (3) A 29.7×7.1 cm×0.4 cm Teflon® separator having six rectangular openings like the K&D module. In the study, test compounds in 95% ethanol solution were applied to 3×4 cm cloth areas marked with ink pen on a 29.7-cm×7.1 cm strip of organdy cloth. We routinely applied ethanol solutions (115 μL) 0.5 cm outside of the 3×4 marked cloth areas to ensure that mosquitoes were never exposed to any area of untreated cloth. […] The Teflon® separator was placed over the treated cloth. The function of the separator was to prevent direct contact of the K&D module with chemically treated cloth. A bioassay replicate consisted of three treatments: isolongifolenone, Deet, and 95% ethanol treated cloth as control. We used two replicates with treatments randomly positioned over the six-cells of a reservoir.
(§3) The mosquito bioassays were conducted With the in vitro K&D module systems positioned in a Purair ductless chemical fume hood (Air Science USA, LLC, Fort Myers, Fla.) from 1300-1600 h over days at 24°-26° C. and 24-51%, RH in ambient laboratory light. Mated nulliparous A. aegypti and A. stephensi (5-15 d old) were tested, and they had no water 24 h before testing. Mosquitoes were loaded into each of six adjacent K&D module cells and promptly after loading they were exposed to 2 replicates of the three treatments on the organdy cloth. Routinely, a six-celled K&D module containing five mosquitoes/cell was positioned on the Teflon® separator over air-dried cloth treatments covering the blood-membrane wells, and trap doors of the K&D modules were opened to expose-the treatments to the sets of mosquitoes. After a 3-minute exposure, the number of mosquitoes biting through cloth treatments in each cell was recorded and mosquitoes were prodded back into the cells. […]

Anopheles stephensi = assay: as above; format: in vivo; details: 25 nmol/cm^2 cloth; 3-minute exposure; 200 females; FIG. 2
From the text: as §1, §2, §3

[1] = tested on: Amblyomma americanum nymphs; assay: fingertip tick repellency bioassay (treated cloth strip around finger); format: in vivo; details: A. americanum nymphs; 155 nmol/cm^2 cloth; 10 min after release on finger
From the text: (§4) Tick Bioassay: Blacklegged tick (Ixodes scapularis) nymphs were reared from larvae obtained from the laboratory colony at Oklahoma State University, Stillwater, Okla., and fed on rats (Beltsville Area Animal Care and Use Committee Protocol #05-0122) at the U.S. Department of Agriculture (USDA), Agricultural Research Service (ARS), Beltsville Agricultural Research Center, Beltsville, Md. Lone star tick (Amblyomma americanum) nymphs were obtained from a colony at the USDA, ARS, Knipling-Bushland U.S. Livestock Insects Research Laboratory, Kerrville, Tex. Both species of ticks were maintained at 24° C.; ˜97% RH and 16:8 h LD until testing.
(§5) The fingertip bioassay used by Schreck et al. (Schreck, C. E., et al., J. Am. Mosq. Control Assoc., 11: 136-140 (1995)) was modified (Carroll, J. F., et al., Exp. Appl. Acarol., 41: 215-224 (2007); Carroll, J. F., et al., Med. Vet. Entomol., 19:101-106 (2005)) by applying treatments to the outer layer of a strip of cloth (organdy) later doubly wrapped around the middle phalanx of an index finger. A 7×7 […] strip of organdy cloth (G Street Fabrics, Rockville, Md.) was cut in the shape of a hockey stick (9 cm long section, 4.5 cm short section, 4-4.5 cm wide) so that when the cloth was wrapped twice around the middle phalanx of the index finger it completely covered the area between the deepest creases of the distal and middle joints of the finger of a volunteer subject. The cloth extended 5-6 mm proximally beyond the deepest crease of the middles joint and overlapped 1-3 mm. With the strip of cloth in place, the boundaries of the area to receive the repellent treatment area (between the deepest creases of the distal and middle joints) were marked on the cloth with a lead pencil. This cloth was used as a template for tracing the boundaries on other cloths.
(§6) Stoichiometrically equivalent stock 95% ethanol solutions of the compounds were prepared: 50 nmol Deet/μL and 50 nmol isolongifolenone or isolongifolenone analog/μL for use in all bioassays. The volumes of the respective solutions used to generate 155 nmole repellent doses/cm^2 cloth were based on the dimensions of the middle phalanx of the left index finger of a volunteer subject. The volume of the treated solutions required to give the desired nmoles/cm^2 cloth dosages was calculated from the average of the circumferences of the two finger joints multiplied by the distance between the deepest crease of each joint.
(§7) A repellent solution (52 μL) or ethanol (control) of the same volume was applied to the designated treatment area on the cloth and allowed to dry. As with Schreck et al. (1995), it was necessary to screen I. scapularis nymphs for active individuals. While the treated cloth dried, I. scapularis nymphs were transferred by forceps from a holding vial to a finger. Ten ticks that crawled ≧5 mm were sequestered in a Petri dish that had been glued inside a larger Petri dish with water added to the space between their sides to form a moat. After the cloth dried (10-12 min), it was wrapped twice around the index finger. To keep the cloth wrapped around the finger, three small dabs of beeswax were smeared on the upper surface of the inner layer of cloth at the edge of the overlap and pressure applied for 10 s. Using forceps, the 10 selected ticks were placed on the tip of the horizontally held finger between the nail and the edge of the cloth. When the tenth tick was placed on the finger, the finger was slowly tipped vertically with the tip downward. The locations of the ticks were recorded at 1, 3, 5, 10 and 15 min after their release on the finger. […] For both species, the finger was held over moated Petri dishes while ≧1 tick was on it. During bioassays temperatures ranged from 23°-26° C. and 10-56% RH. The repellent data were compared by paired samples t-test (SPSS 10.0 for Windows for significance at α=0.05 level, George, D., and P. Mallery, SPSS for Windows step by step: A simple guide and reference, 4th ed., 2002, Allyn & Bacon, Boston, Mass.). […]

Ixodes scapularis nymphs = assay: as above; format: in vivo; details: for I. scapularis nymphs repelled: FIG. 4
From the text: as §4, §5, §6, §7

mosquito = details: 25 nmol compound/cm^2, applied to human skin or cloth; cited from earlier work

SMILES	proportion of mosquitoes not biting (biting deterrence) (Aedes aegypti; 25 nmol/cm^2 cloth)	proportion of mosquitoes deterred, dose-response assay (Aedes aegypti; 25 nmole compound/cm^2 cloth)	proportion of mosquitoes deterred, dose-response assay (Aedes aegypti; 36 nmole compound/cm^2 cloth)	proportion of mosquitoes not biting (biting deterrence) (Anopheles stephensi)	Proportion Repelled [1]	I. scapularis nymphs repelled (Ixodes scapularis nymphs; 19.5 nmole/cm^2 cloth) [%]	I. scapularis nymphs repelled (Ixodes scapularis nymphs; 39 nmole/cm^2 cloth) [%]	I. scapularis nymphs repelled (Ixodes scapularis nymphs; 78 nmole/cm^2 cloth) [%]	Proportion Repelled (Ixodes scapularis nymphs; I. scapularis nymphs, 155 nmol/cm^2 cloth, 10 min after release on finger)	proportion of mosquitoes not biting (analog comparison) (Aedes aegypti; 25 nmol/cm^2 cloth, 100 mosquitoes per compound, FIG. 6)	suppression of mosquito biting compared to controls (mosquito)
CC1(C)C2=CC(=O)CC(C)(C)[C@]23CC[C@H]1C3 [Isolongifolenone, (−)-isolongifolenone]	more effectively than Deet	significantly greater than the proportions deterred by Deet	significantly greater than the proportions deterred by Deet	more effectively than Deet	0.725	35	65	100	1.0	–	–
CCN(CC)C(=O)c1cccc(C)c1 [Deet, N,N-Diethyltoluamide, reference compound]	significantly greater	–	–	significantly greater	–	15	55	100	–	significantly greater	ca. 80%
